These results are taken from US11993594B2, “IRAK inhibitors and method for making and using” (Rigel Pharmaceuticals, Inc., priority 2016, dated 2024).

Broadly, the pEC50 is the negative decadic logarithm of the EC50, by convention in mol/L.

Assay [1] relates to LPS induced IL-23 (p19/p40) in DC cells. Nature of the assay: IL23-p19 ELISA, dendritic (DC) cells differentiated from human PBMC, LPS stimulated. Format: cell-based. Particulars: LPS 1 μg/ml, 18 hours, 10 pt. The procedure:
Compound Screening Using DC Cells
Human PBMC cells (400 million) obtained from the vendor were transferred into a T-175 flask containing 15 ml RPMI media (10% FBS) and incubate for 2 hours at 37° C. After 2 hours, the media including floating cells was aspirated out carefully and 12 ml of fresh RPMI media (10% FBS) containing GMCSF (100 ng/ml) and IL4 (20 ng/ml) was added, and the flask was kept in a 37° C. incubator for 7 days.
After 3 days, fresh GMCSF (100 ng/ml) and IL4 (20 ng/ml) were added to the flask and the incubation continued. After 7 days, the fully differentiated cells were harvested by spinning down (1200 rpm/5 min) and aspirating the media. The cells were suspended in fresh RPMI media (10% FBS) containing 50 ng/ml IFNγ (1000 U/ml) and then plated (50K/well in 100 μl) onto a white clear bottom 96 well plate and left in a 37° C. incubator for 24 hours.
After 24 hours incubation, 100 μl of RPMI media was added containing 2× concentrated test compound per well to the above cell-culture media (final concentration becomes 1×) and the plates were pre-incubated for 1 hour at 37° C. before stimulating with LPS.
After 1 hour compound pre-incubation, 10 μl per well of 20× concentrated LPS solution in RPMI media was added to give a final concentration of 1 μg/ml. The mixture was shaken and incubated the plates at 37° C. for an additional 18 hours.
155 μl of the supernatant was harvested from each well carefully (without the tip touching the bottom of the well) and to the remaining 50 μl/well of the cell culture plate was added 50 μl of Cell Titer Glo reagent. The mixture was incubated for 1-2 minutes on a shaker and the plate was read for luminescence intensity to determine the compound cytotoxicity. The cell culture supernatant collected above was used to carry out IL23 ELISA (65 μl—Supernatant) and IL10 ELISA (90 μl—Supernatant) as described below.
Human IL-23 (p19/p40) ELISA Protocol (e-Biosciences)
To 10.5 ml PBS add 50 μl of anti-IL23 (p19) was added capture antibody (2.5 μg/ml). The mixture was mixed well and 100 μl of the coating solution was added to each well of the 96 well white plates from Pierce. The wells were covered and incubated overnight at 4° C.
The anti-IL23 (p19)-antibody-coated plates were washed 2× using TBST (use plate washer) and blocked using 200 μl of 0.5% Casein for 1.5 to 2 hours at room temperature with shaking.
The plates were washed 2× using TBST and the supernatant was transferred (65 μl/well) to the above pre-blocked/IL23(p19)-antibody-coated 96 well plate, and incubated at room temperature for 1.5 hours with shaking.
The plates were washed 4× using TBST (plate washer) and 100 μl/well detection antibody solution prepared from 2 μl of biotin labeled anti-IL-12 (p40/p70) antibody in 11 ml 1% BSA/PBS solution (1-5000 dilution) was added. The plates were incubated for 1 hour with shaking at Room temperature.
Again, the plates were washed 4× with TBST and 100 μl of HRP labeled Streptavidin (R&D Systems) solution (10 μl/10 ml 1% BSA solution) was added, and the plates were incubated at room temperature for another 45 minutes with shaking.
After 45 minutes, the plates were washed with TBST 4× and 100 μl/well Super Signal ELISA Pico Chemiluminescent Substrate from Pierce (3.5 ml A+3.5 ml B+3.5 ml MQ water) was added. The plates were shaken for 1-2 minutes then read on a plate reader. […]

In assay [2] the test system is LPS Induced IL23p19 in THP-1 Cells. Kind of assay: LPS Induced IL23p19 in THP-1 Cells (with IFNγ Primed) Assay. Format: cell-based, human. Particulars: THP-1 cells primed with IFNγ 50 ng/mL, LPS 1 ug/mL, 18 hours, 10 pt, read-out: IL23-p19 ELISA, THP1-IFNγ, LPS, 10 pt EC50. The source says: LPS Induced IL23p19 in THP-1 Cells (with IFNγ Primed) Assay
THP-1 Cells (ATCC, Cat #TIB-202), Dimethyl Sulfoxide (DMSO) (Sigma-Aldrich, Cat #D2650), RPMI 1640 (Cellgro, Cat #10-040-CM), Fetal Bovine Serum (Sigma, Cat #F4135), Albumin From Bovine Serum (BSA) (Sigma-Aldrich, Cat #A7906), LPS (Serotype K-235, Sigma, Product Number L 2143), IFNγ (Peprotech, Cat #300-02) Capture antibody: Human IL-23p19 ELISA (e-Bioscience, Cat. #14-7238-85), Detection antibody: Primary Mouse Biotinylated anti-human IL-12(p40/p70) (e-Bioscience, Cat. #13-7129-85), Secondary HRP-conjugated Streptavidin (R&D Systems, Cat #DY998), 1×PBST Washing Buffer (PBS-Tween tablet) (VWR International, Cat #80058-558), ELISA Blocking Buffer (PBS with 1% BSA), ELISA Dilution Buffer (PBS with 1% BSA), 384 Well Flat-Bottom, MaxiSorp Black Immuno Plates (Thermo Scientific, Cat #12-565-346), 384 Well Flat-Bottom, White Tissue Culture Plates (Thermo Scientific, Cat #12-565-343), Super Signal ELISA Pico Chemiluminescent Substrate (Thermo Scientific, Cat #37070), Cell Titer Glo reagent (Promega, Cat #G7573), Positive control, IKK2VI inhibitor (Calbiochem, Cat #401483), AquaMax 4000 plate washer (Molecular Devices), Luminometer, Wallac Victor2 1420 Multilabel Counter.
On day 1, 50K/well THP-1 cells were seeded and primed with IFNγ (50 ng/mL) in 384-well plates for about 18 hours in RPMI media with 10% FBS. On day 2, the compound was serially diluted in DMSO from 5 mM in 3-fold dilutions, and then diluted 1:125 in RPMI media with 10% FBS. 50 μL/well 2× compound was added to 50 μL/well THP-1 cells (with IFNγ primed) in duplicate in 384 well tissue culture plates. The cells were pre-incubated with compound for 1 hour at 37° C., 5% CO2 before addition of 10 μL/well 11×LPS to give a final concentration of 1 ug/mL LPS. Day 3, after stimulation for 18 hours at 37° C., 5% CO2, the assay plate was centrifuged and 70 μL/well supernatant was harvested. IL-23p19 protein in 70 µL/well of supernatant was measured by sandwich ELISA, and 25 μl/well Cell Titer Glo reagent was added to the remaining cells to measure compound toxicity.
Human IL-23p19 Sandwich ELISA:
Maxisorp immuno ELISA plates were pre-coated with 25 μL/well of anti-IL-23p19 capture antibody (2.5 ug/mL) in PBS overnight at room temperature. After washing with 1×PBST, the plates were blocked using 100 μL/well of 1% BSA in PBS for 2 hours at room temperature. The plates were washed three times with 1×PBST and 70 μL/well supernatant were added. The plates were incubated at room temperature for 2 hours with shaking and washed three times with 1×PBST. 25 μL/well of biotin labeled anti-IL-12(p40/p70) detection antibody (100 ng/mL) in PBS with 1% BSA was added and the plates were incubated at room temperature for 2 hours with shaking. After washing three times with 1×PBST, 25 μL/well of streptavidin-HRP (1:200) in PBS with 1% BSA was added and the plates were incubated at room temperature for 20 minutes with shaking. The plates were washed three times with 1×PBST and 25 μL/well of Super Signal ELISA Pico Chemiluminescent Substrate were added. The plates were read with a luminometer, and the chemiluminescence values were entered into Athena (Rigel) for curve fitting, EC50 calculation, and database storage. […]

pEC50: −log10 of the molar value. Where two headings read alike, the source gives them in different places.

As to `CCOC1CCC(n2cc(NC(=O)c3coc(-c4cnn(COP(=O)(O)O)c4)n3)c(-c3nc(F)ccc3F)n2)CC1` (stereo not shown) [Compound I-8, sodium (4-(4-((3-(3,6-difluoropyridin-2-yl)-1-((1r,4r)-4-ethoxycyclohexyl)-1H-pyrazol-4-yl)carbamoyl)oxazol-2-yl)-1H-pyrazol-1-yl)methyl phosphate], the pEC50 in assay [1] (Table 1, IFNγ 50 ng/ml) is 5.12; in assay [1] (Table 2, IFNγ 50 ng/ml), 5.12; in assay [2] (Table 1), 6.73; in assay [2] (Table 2) it was 6.73.
Regarding `CCO[C@H]1CC[C@H](n2cc(NC(=O)c3coc(-c4cn[nH]c4)n3)c(-c3nc(F)ccc3F)n2)CC1` [Compound I-9, N-(3-(3,6-difluoropyridin-2-yl)-1-((1r,4r)-4-ethoxycyclohexyl)-1H-pyrazol-4-yl)-2-(1H-pyrazol-4-yl)oxazole-4-carboxamide], the pEC50 in assay [1] (Table 1, IFNγ 50 ng/ml) was 6.77; in assay [1] (Table 2, IFNγ 50 ng/ml), 6.77; in assay [2] (Table 1), 7.64; in assay [2] (Table 2) it was 7.64.
For the compound `CCO[C@H]1C[C@@H](n2cc(NC(=O)c3coc(-c4cn[nH]c4)n3)c(-c3nc(F)ccc3F)n2)C1` [Compound I-10, N-(3-(3,6-difluoropyridin-2-yl)-1-((1s,3s)-3-ethoxycyclobutyl)-1H-pyrazol-4-yl)-2-(1H-pyrazol-4-yl)oxazole-4-carboxamide], the pEC50 was 7.51 in assay [1] (Table 1, IFNγ 50 ng/ml); 7.51 in assay [1] (Table 2, IFNγ 50 ng/ml); 7.16 in assay [2] (Table 1); 7.16 in assay [2] (Table 2).
Turning to `O=C(Nc1cn([C@H]2CC[C@H](O)CC2)nc1-c1nc(F)ccc1F)c1coc(-c2cn[nH]c2)n1` [Compound I-11, N-(3-(3,6-difluoropyridin-2-yl)-1-((1r,4r)-4-hydroxycyclohexyl)-1H-pyrazol-4-yl)-2-(1H-pyrazol-4-yl)oxazole-4-carboxamide], the pEC50 is 6.75 in assay [1] (Table 1, IFNγ 50 ng/ml); 6.75 in assay [1] (Table 2, IFNγ 50 ng/ml); 7.60 in assay [2] (Table 1); 7.60 in assay [2] (Table 2).
As to `CCO[C@H]1CC[C@H](n2cc(NC(=O)c3coc(-c4cnn(COP(=O)(O)O)c4)n3)c(-c3nc(F)ccc3F)n2)CC1` [Compound I-12, (4-(4-((3-(3,6-difluoropyridin-2-yl)-1-((1r,4r)-4-ethoxycyclohexyl)-1H-pyrazol-4-yl)carbamoyl)oxazol-2-yl)-1H-pyrazol-1-yl)methyl dihydrogen phosphate], the pEC50 in assay [1] (Table 1, IFNγ 50 ng/ml) is 5.62; in assay [1] (Table 2, IFNγ 50 ng/ml), 5.62; in assay [2] (Table 1), 6.75; in assay [2] (Table 2), 6.75.
As to `CCO[C@H]1CC[C@H](n2cc(NC(=O)c3coc(-c4cn[nH]c4)n3)c(-c3ncc(F)cc3F)n2)CC1` [Compound I-13, N-(3-(3,5-difluoropyridin-2-yl)-1-((1r,4r)-4-ethoxycyclohexyl)-1H-pyrazol-4-yl)-2-(1H-pyrazol-4-yl)oxazole-4-carboxamide], the negative logarithm of the EC50 (pEC50) in assay [1] (Table 1, IFNγ 50 ng/ml) is 6.84; in assay [1] (Table 2, IFNγ 50 ng/ml) it was 6.84; in assay [2] (Table 1), 7.47; in assay [2] (Table 2), 7.47.
In the case of `O=C(Nc1cn(CCOCC(F)(F)F)nc1-c1ccccn1)c1coc(-c2cn[nH]c2)n1` [Compound I-15, 2-(1H-pyrazol-4-yl)-N-(3-(pyridin-2-yl)-1-(2-(2,2,2-trifluoroethoxy)ethyl)-1H-pyrazol-4-yl)oxazole-4-carboxamide], the negative logarithm of the EC50 (pEC50) in assay [1] (Table 1, IFNγ 50 ng/ml) was 6.35; in assay [2] (Homo sapiens, Table 1) it was 7.07.
In the case of `CCO[C@H]1CC[C@H](n2cc(NC(=O)c3coc(-c4cnn(COP(=O)(O)O)c4)n3)c(-c3cnccn3)n2)CC1` [Compound I-17, (4-(4-((1-((1r,4r)-4-ethoxycyclohexyl)-3-(pyrazin-2-yl)-1H-pyrazol-4-yl)carbamoyl)oxazol-2-yl)-1H-pyrazol-1-yl)methyl dihydrogen phosphate], the pEC50 in assay [1] (Table 1, IFNγ 50 ng/ml) was 7.81; in assay [1] (Table 2, IFNγ 50 ng/ml) it was 7.81; in assay [2] (Table 1), 7.22; in assay [2] (Table 2), 7.22.
Take `CCOC1CCC(n2cc(NC(=O)c3coc(-c4cnn(COP(=O)(O)O)c4)n3)c(-c3cnccn3)n2)CC1` (stereo not shown) [Compound I-18, sodium (4-(4-((1-((1r,4r)-4-ethoxycyclohexyl)-3-(pyrazin-2-yl)-1H-pyrazol-4-yl)carbamoyl)oxazol-2-yl)-1H-pyrazol-1-yl)methyl phosphate]: the negative-log EC50 (pEC50) in assay [1] (Table 1, IFNγ 50 ng/ml) is 7.59; in assay [1] (Table 2, IFNγ 50 ng/ml), 7.59; in assay [2] (Table 1), 7.08; in assay [2] (Table 2) it was 7.08.
